According to patent publication US8592436B2, “Arylamide pyrimidone derivatives” (Sanofi, priority 2007, dated 2013):

Experiments:
GSK3β = GSK3β (Homo sapiens, UniProt P49841); experiment: Inhibitory activity against GSK3β (33P-ATP phosphorylation of prephosphorylated GS1 peptide, two protocols); type: biochemical; settings: protocol used not stated
Description: Two different protocols can be used. In a first protocol: 7.5 μM of prephosphorylated GS1 peptide and 10 μM ATP (containing 300,000 cpm of ^33P-ATP) were incubated in 25 mM Tris-HCl, pH 7.5, 0.6 mM DTT, 6 mM MgCl2, 0.6 mM EGTA, 0.05 mg/ml BSA buffer for 1 hour at room temperature in the presence of GSK3beta (total reaction volume: 100 microliters). In a second protocol: 4.1 μM of prephosphorylated GS1 peptide and 42 μM ATP (containing 260,000 cpm ^33P-ATP) were incubated in 80 mM Mes-NaOH, pH 6.5, 1 mM Mg acetate, 0.5 mM EGTA, 5 mM 2-mercaptoethanol, 0.02% Tween 20, 10% glycerol buffer for 2 hours at room temperature in the presence of GSK3beta. Inhibitors were solubilized in DMSO (final solvent concentration in the reaction medium, 1%). The reaction was stopped with 100 microliters of a solution made of 25 g polyphosphoric acid (85% P2O5), 126 ml 85% H3PO4, H2O to 500 ml and then diluted to 1:100 before use. An aliquot of the reaction mixture was then transferred to Whatman P81 cation exchange filters and rinsed with the solution described above. Incorporated ^33P radioactivity was determined by liquid scintillation spectrometry. The phosphorylated GS-1 peptide had the following sequence: NH2-[…](P)EDEE-COOH. SEQ ID NO: 1 (Woodgett, J. R. (1989) Analytical Biochemistry 180, 237-241.

Chain of GSK3β (P49841 whole entry): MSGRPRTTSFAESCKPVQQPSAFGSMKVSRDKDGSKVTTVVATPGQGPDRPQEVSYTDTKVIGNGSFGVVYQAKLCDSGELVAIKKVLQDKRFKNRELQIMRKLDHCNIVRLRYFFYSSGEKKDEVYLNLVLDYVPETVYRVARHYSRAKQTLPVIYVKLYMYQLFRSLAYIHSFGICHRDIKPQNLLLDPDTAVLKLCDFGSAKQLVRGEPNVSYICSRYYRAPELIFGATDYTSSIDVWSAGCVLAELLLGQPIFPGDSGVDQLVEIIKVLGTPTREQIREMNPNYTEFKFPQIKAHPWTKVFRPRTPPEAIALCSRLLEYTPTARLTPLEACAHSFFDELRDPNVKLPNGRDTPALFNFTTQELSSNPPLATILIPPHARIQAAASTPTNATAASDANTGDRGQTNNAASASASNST

melting point: 239 to 241 °C
IC50 (GSK3β): 0.023 µM
Structure (SMILES): COc1ccccc1C(=O)NCc1nc(-c2ccncn2)cc(=O)n1C [compound 1, 2-Methoxy-N-(1-methyl-6-oxo-1,6-dihydro-[4,4′]bipyrimidinyl-2-ylmethyl)-benzamide]
